Laboratory results from patent US9481677B2, “Biaryl ether sulfonamides and their use as therapeutic agents” (XENON PHARMACEUTICALS INC., priority 2011, dated 2016).

Target: Nav1.7 (Homo sapiens (Human), UniProt Q15858)
Test: Patch voltage clamp electrophysiology, block of inactivated-state Nav1.7 in HEK-293 cells
Assay type: cell-based
Settings: affinity for the inactivated state; HEK-293 cells with β1 subunit; held at -60 mV; read-out: NaV1.7 (IC50 class)
Experimental: Patch voltage clamp electrophysiology allows for the direct measurement and quantification of block of voltage-gated sodium channels (Nav's), and allows the determination of the time- and voltage-dependence of block which has been interpreted as differential binding to the resting, open, and inactivated states of the sodium channel (Hille, B., Journal of General Physiology (1977), 69: 497-515).
The following patch voltage clamp electrophysiology studies were performed on representative compounds of the invention using human embryonic kidney cells (HEK), permanently transfected with an expression vector containing the full-length cDNA coding for the desired human sodium channel α-subunit, grown in culture media containing 10% FBS, 1% PSG, and 0.5 mg/mL G418 at 37° C. with 5% CO2. […] Nav1.7 and Nav1.5 cDNAs (NM_002977 and AC137587; SCN5A, respectively) were stably expressed in HEK-293 cells. The β1 subunit was coexpressed only in the Nav1.7 cell line.
Sodium currents were measured using the patch clamp technique in the whole-cell configuration using either a PatchXpress automated voltage clamp or manually using an Axopatch 200B (Axon Instruments) or Model 2400 (A-M systems) amplifier. […] The pipette was filled with a solution comprised of: 5 mM NaCl, 10 mM CsCl, 120 mM CsF, 0.1 mM CaCl2, 2 mM MgCl2, 10 mM HEPES, 10 mM EGTA; and adjusted to pH 7.2 with CsOH. The external solution had the following composition: 140 mM NaCl, 5 mM KCl, 2 mM CaCl2, 1 mM MgCl2, 10 mM HEPES; and adjusted to pH 7.4 with NaOH. In some studies, the external sodium was reduced by equimolar replacement with choline. Osmolarity in the CsF internal and NaCl external solutions was adjusted to 300 mOsm/kg and 310 mOsm/kg with glucose, respectively. All recordings were performed at ambient temperature in a bath chamber with a volume of 150 μL. Control sodium currents were measured in 0.5% DMSO. Controls and representative compounds of the invention were applied to the recording chamber through a 4-pinch or 8-pinch valve bath perfusion system manufactured by ALA Scientific Instruments.
Currents were recorded at 40 kHz sampling frequency, filtered at […], and stored using a Digidata-1322A analogue/digital interface with the pClamp software (Axon Instruments). Series resistance compensation was applied (60-80%). […] All statistics in this study are given as mean±SD.
The membrane potential was maintained at a voltage where inactivation of the channel is complete (which was −60 mV for both Nav1.7 and Nav1.5). The voltage is then stepped back to a very negative (Vhold=−150 mV) voltage for 20 ms and then a test pulse is applied to quantify the compound block. […] The percent decrease in sodium current following wash-on of compound was taken as the percent block of sodium channels.
The Example numbers provided in Table 1 and Table 2 correspond to the Examples herein.

Nav1.7, sequence (Q15858 other isoform, or with tags, fused parts or gaps): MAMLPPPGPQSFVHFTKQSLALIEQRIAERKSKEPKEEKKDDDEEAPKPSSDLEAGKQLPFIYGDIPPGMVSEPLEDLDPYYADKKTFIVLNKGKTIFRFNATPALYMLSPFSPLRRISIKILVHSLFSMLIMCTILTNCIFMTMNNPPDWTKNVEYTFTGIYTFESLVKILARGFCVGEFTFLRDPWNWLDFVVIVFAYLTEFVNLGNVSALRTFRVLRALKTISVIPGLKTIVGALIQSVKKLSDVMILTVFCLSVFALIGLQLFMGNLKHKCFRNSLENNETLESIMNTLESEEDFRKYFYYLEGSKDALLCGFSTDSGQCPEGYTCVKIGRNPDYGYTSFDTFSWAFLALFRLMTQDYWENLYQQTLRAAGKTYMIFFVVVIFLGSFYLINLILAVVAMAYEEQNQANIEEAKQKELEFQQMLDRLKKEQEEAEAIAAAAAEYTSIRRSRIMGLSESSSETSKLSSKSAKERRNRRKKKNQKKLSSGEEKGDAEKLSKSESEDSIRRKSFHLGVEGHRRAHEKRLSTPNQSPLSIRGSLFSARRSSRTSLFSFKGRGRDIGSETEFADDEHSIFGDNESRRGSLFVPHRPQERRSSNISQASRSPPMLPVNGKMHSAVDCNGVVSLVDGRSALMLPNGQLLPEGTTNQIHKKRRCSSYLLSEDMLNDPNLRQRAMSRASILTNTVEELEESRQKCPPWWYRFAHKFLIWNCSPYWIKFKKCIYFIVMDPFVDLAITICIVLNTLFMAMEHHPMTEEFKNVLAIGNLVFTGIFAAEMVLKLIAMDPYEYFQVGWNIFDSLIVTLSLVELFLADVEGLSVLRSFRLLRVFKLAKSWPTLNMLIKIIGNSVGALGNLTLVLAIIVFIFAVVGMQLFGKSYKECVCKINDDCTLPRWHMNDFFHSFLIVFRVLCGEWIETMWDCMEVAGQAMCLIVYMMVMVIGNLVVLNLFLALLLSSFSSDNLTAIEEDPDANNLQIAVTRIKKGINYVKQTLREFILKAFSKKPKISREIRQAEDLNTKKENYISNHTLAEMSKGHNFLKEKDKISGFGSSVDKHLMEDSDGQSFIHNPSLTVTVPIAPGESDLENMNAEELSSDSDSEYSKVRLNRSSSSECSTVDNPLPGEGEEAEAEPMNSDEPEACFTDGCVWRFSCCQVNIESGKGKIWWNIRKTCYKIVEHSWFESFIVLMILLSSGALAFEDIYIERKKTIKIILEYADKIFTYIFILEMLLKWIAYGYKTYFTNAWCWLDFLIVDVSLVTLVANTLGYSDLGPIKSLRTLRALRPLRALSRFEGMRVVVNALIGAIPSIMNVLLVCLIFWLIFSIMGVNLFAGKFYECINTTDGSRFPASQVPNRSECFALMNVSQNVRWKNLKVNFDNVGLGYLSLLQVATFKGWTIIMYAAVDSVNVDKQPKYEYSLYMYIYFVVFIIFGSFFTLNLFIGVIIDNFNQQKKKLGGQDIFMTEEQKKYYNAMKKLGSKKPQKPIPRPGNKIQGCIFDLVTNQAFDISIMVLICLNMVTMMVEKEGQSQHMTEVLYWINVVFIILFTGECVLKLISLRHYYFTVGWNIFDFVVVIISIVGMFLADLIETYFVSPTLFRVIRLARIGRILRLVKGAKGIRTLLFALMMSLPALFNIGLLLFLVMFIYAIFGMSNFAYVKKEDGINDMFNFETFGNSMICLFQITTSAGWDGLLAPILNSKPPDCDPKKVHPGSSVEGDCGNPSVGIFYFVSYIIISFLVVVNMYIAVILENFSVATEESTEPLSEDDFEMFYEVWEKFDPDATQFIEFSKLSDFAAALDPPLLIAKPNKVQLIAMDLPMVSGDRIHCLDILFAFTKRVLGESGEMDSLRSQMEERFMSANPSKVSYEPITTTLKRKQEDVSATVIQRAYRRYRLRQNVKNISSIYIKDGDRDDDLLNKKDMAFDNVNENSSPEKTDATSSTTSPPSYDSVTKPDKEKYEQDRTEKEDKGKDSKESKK
Nav1.7, sequence (Q07699 19-218 partner): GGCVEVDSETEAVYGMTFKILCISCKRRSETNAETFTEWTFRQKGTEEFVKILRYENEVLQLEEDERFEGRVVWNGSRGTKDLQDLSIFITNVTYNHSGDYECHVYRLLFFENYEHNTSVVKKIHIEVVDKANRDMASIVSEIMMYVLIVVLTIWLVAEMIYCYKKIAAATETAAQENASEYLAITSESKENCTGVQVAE

IC50	Structure (SMILES)
≤ 100 nM	Nc1noc2ccc(-c3cc(Cl)ccc3Oc3cc(F)c(S(=O)(=O)Nc4ncns4)c(F)c3)cc12 [Example 64, 4-(2-(3-aminobenzo[d]isoxazol-5-yl)-4-chlorophenoxy)-2,6-difluoro-N-(1,2,4-thiadiazol-5-yl)benzenesulfonamide]
≤ 100 nM	Nc1noc2ccc(-c3ccccc3Oc3cc(F)c(S(=O)(=O)Nc4ncns4)cc3F)cc12 [Example 58, 4-(2-(3-aminobenzo[d]isoxazol-5-yl)phenoxy)-2,5-difluoro-N-(1,2,4-thiadiazol-5-yl)benzenesulfonamide]
≤ 100 nM	Nc1noc2ccc(-c3cc(Cl)ccc3Oc3cc(F)c(S(=O)(=O)Nc4cscn4)cc3F)cc12 [Example 49, 4-(2-(3-aminobenzo[d]isoxazol-5-yl)-4-chlorophenoxy)-2,5-difluoro-N-(thiazol-4-yl)benzenesulfonamide]

Structure (SMILES)	IC50
O=S(=O)(Nc1ncns1)c1cc(F)c(Oc2ccc(Cl)cc2-c2cnc3n2CCNC3)cc1F [Example 32, 4-(4-chloro-2-(5,6,7,8-tetrahydroimidazo[1,2-a]pyrazin-3-yl)phenoxy)-2,5-difluoro-N-(1,2,4-thiadiazol-5-yl)benzenesulfonamide]	100 to 1000 nM
Nc1n[nH]c2ccc(-c3cc(Cl)ccc3Oc3cc(F)c(S(=O)(=O)Nc4ncns4)cc3F)cc12 [Example 45, 4-(2-(3-amino-1H-indazol-5-yl)-4-chlorophenoxy)-2,5-difluoro-N-(1,2,4-thiadiazol-5-yl)benzenesulfonamide]	≤ 100 nM
